Experimental data taken from US20080051387A1, “TETRAHYDROPYRIDO[3,4-D]PYRIMIDINES AND RELATED ANALOGUES” (priority 2006, published 2008).

What follows are molecules tested against T1, chimeric human H3 receptor (Homo sapiens, UniProt Q9Y5N1) (assay: Chimeric human H3 receptor screening GTP binding assay (inhibition of histamine-stimulated GTP-gamma35S binding, Example 8)). Settings: 1 h; assay described in Example 8; symbol "!" in column headed Ki; read-out: Ki ("!": percent inhibition of agonist-induced GTP-gammaS binding to H3).
T1 construct: rat Galpha-i2 (Gnai2, rat); made in house; host or cells: Sf9 insect cells (baculovirus); P2 membranes
T1 sequence (Q9Y5N1 with tags, fused parts or gaps): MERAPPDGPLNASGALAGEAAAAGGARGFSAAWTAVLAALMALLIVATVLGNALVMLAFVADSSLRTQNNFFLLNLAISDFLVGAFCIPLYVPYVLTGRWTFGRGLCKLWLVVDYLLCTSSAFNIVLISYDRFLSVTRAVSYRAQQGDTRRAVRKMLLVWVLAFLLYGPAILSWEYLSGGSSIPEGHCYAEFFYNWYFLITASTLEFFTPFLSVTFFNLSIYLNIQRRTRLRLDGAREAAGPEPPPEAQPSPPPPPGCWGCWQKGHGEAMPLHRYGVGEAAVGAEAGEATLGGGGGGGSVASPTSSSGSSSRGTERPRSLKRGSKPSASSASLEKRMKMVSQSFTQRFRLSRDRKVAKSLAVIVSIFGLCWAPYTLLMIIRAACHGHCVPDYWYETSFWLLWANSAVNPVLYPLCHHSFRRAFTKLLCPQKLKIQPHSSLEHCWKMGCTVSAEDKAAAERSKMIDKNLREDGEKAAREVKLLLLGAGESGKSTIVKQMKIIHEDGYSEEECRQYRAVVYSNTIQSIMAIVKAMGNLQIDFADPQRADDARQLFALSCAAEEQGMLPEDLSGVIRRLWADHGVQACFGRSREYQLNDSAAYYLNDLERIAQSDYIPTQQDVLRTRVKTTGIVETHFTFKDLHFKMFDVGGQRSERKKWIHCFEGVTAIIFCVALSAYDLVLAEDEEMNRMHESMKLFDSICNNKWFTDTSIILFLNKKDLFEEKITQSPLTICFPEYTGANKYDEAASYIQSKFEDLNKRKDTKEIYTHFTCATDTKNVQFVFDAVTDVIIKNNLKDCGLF
Format: biochemical
Outline: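 Compound tested at 4 μM against 1 μM histamine stimulation; 125 pM GTP-gamma35S binding measured by filtration and scintillation after 60 min at room temperature. Membranes from Sf9 cells expressing chimeric human H3 plus G-protein subunits, in Tris pH 7.4/NaCl/MgCl2/GDP buffer; values are % inhibition after nonspecific subtraction.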

| SMILES | inhibition at 4 µM [%] |
| --- | --- |
| O=C(c1cc(C(F)(F)F)cc(C(F)(F)F)c1)N1CCc2cnc(N3CCN(C4CCC4)CC3)nc2CC1 [Compound 402, 7-[3,5-bis(trifluoromethyl)benzoyl]-2-(4-cyclobutylpiperazin-1-yl)-6,7,8,9-tetrahydro-5H-pyrimido[4,5-d]azepine] | ≥ 90 |
| Cc1ccc(C(=O)N2CCc3cnc(N4CCN(C5CCC5)CC4)nc3CC2)cc1Cl [Compound 394, 7-(3-chloro-4-methylbenzoyl)-2-(4-cyclobutylpiperazin-1-yl)-6,7,8,9-tetrahydro-5H-pyrimido[4,5-d]azepine] | ≥ 90 |
| COc1cc(OC)cc(C(=O)N2CCc3cnc(N4CCN(C5CCC5)CC4)nc3CC2)c1 [Compound 381, 2-(4-cyclobutylpiperazin-1-yl)-7-(3,5-dimethoxybenzoyl)-6,7,8,9-tetrahydro-5H-pyrimido[4,5-d]azepine] | ≥ 90 |

Results, then the molecule that gave them:

| inhibition at 4 µM [%] | SMILES |
| --- | --- |
| ≥ 90 | COc1cc(C(=O)N2CCc3cnc(N4CCN(C5CCC5)CC4)nc3CC2)nc2ccccc12 [Compound 490, 2-(4-cyclobutylpiperazin-1-yl)-7-[(4-methoxyquinolin-2-yl)carbonyl]-6,7,8,9-tetrahydro-5H-pyrimido[4,5-d]azepine] |
| ≥ 90 | O=C(/C=C/c1ccccc1C(F)(F)F)N1CCc2cnc(N3CCN(C4CCC4)CC3)nc2CC1 [Compound 580, 2-(4-cyclobutylpiperazin-1-yl)-7-[(2E)-3-[2-(trifluoromethyl)phenyl]prop-2-enoyl]-6,7,8,9-tetrahydro-5H-pyrimido[4,5-d]azepine] |
| ≥ 90 | O=C(c1csnn1)N1CCc2cnc(N3CCN(C4CCC4)CC3)nc2CC1 [Compound 527, 2-(4-cyclobutylpiperazin-1-yl)-7-(1,2,3-thiadiazol-4-ylcarbonyl)-6,7,8,9-tetrahydro-5H-pyrimido[4,5-d]azepine] |
| ≥ 90 | O=C(c1ccccc1Oc1ccccc1)N1CCc2cnc(N3CCN(C4CCC4)CC3)nc2CC1 [Compound 422, 2-(4-cyclobutylpiperazin-1-yl)-7-(2-phenoxybenzoyl)-6,7,8,9-tetrahydro-5H-pyrimido[4,5-d]azepine] |
| ≥ 90 | Cc1onc(-c2c(Cl)cccc2Cl)c1C(=O)N1CCc2cnc(N3CCN(C4CCC4)CC3)nc2CC1 [Compound 523, 2-(4-cyclobutylpiperazin-1-yl)-7-{[3-(2,6-dichlorophenyl)-5-methylisoxazol-4-yl]carbonyl}-6,7,8,9-tetrahydro-5H-pyrimido[4,5-d]azepine] |
| ≥ 90 | COc1ccc(/C=C/C(=O)N2CCc3cnc(N4CCN(C5CCC5)CC4)nc3CC2)cc1OC [Compound 560, 2-(4-cyclobutylpiperazin-1-yl)-7-[(2E)-3-(3,4-dimethoxyphenyl)prop-2-enoyl]-6,7,8,9-tetrahydro-5H-pyrimido[4,5-d]azepine] |
| ≥ 90 | O=C(c1cc(C(F)(F)F)ccc1Cl)N1CCc2cnc(N3CCN(C4CCC4)CC3)nc2CC1 [Compound 438, 7-[2-chloro-5-(trifluoromethyl)benzoyl]-2-(4-cyclobutylpiperazin-1-yl)-6,7,8,9-tetrahydro-5H-pyrimido[4,5-d]azepine] |
| ≥ 90 | Cc1nnsc1C(=O)N1CCc2cnc(N3CCN(C4CCC4)CC3)nc2CC1 [Compound 528, 2-(4-cyclobutylpiperazin-1-yl)-7-[(4-methyl-1,2,3-thiadiazol-5-yl)carbonyl]-6,7,8,9-tetrahydro-5H-pyrimido[4,5-d]azepine] |
| ≥ 90 | CCCCn1c(C(=O)N2CCc3cnc(N4CCN(C5CCC5)CC4)nc3CC2)cc2ccccc21 [Compound 454, 7-[(1-butyl-1H-indol-2-yl)carbonyl]-2-(4-cyclobutylpiperazin-1-yl)-6,7,8,9-tetrahydro-5H-pyrimido[4,5-d]azepine] |
| ≥ 90 | O=C(c1cccnc1Oc1ccccc1)N1CCc2cnc(N3CCN(C4CCC4)CC3)nc2CC1 [Compound 495, 2-(4-cyclobutylpiperazin-1-yl)-7-[(2-phenoxypyridin-3-yl)carbonyl]-6,7,8,9-tetrahydro-5H-pyrimido[4,5-d]azepine] |

Same assay, conditions: 1 h; assay of Example 8; symbol "!" in column headed Ki; read-out: percent inhibition of agonist-induced GTP-gammaS binding to H3

| inhibition at 4 µM [%] | SMILES |
| --- | --- |
| ≥ 90 | COc1ccc(/C=C/C(=O)N2CCc3cnc(N4CCN(C5CCC5)CC4)nc3CC2)c(Cl)c1OC [Compound 586, 7-[(2E)-3-(2-chloro-3,4-dimethoxyphenyl)prop-2-enoyl]-2-(4-cyclobutylpiperazin-1-yl)-6,7,8,9-tetrahydro-5H-pyrimido[4,5-d]azepine] |
| ≥ 90 | COc1ccc(OC)c(CC(=O)N2CCc3cnc(N4CCN(C5CCC5)CC4)nc3CC2)c1 [Compound 308, 2-(4-cyclobutylpiperazin-1-yl)-7-[(2,5-dimethoxyphenyl)acetyl]-6,7,8,9-tetrahydro-5H-pyrimido[4,5-d]azepine] |
| ≥ 90 | CC(Oc1ccccc1Cl)C(=O)N1CCc2cnc(N3CCN(C4CCC4)CC3)nc2CC1 (stereo not drawn) [Compound 344, 7-[2-(2-chlorophenoxy)propanoyl]-2-(4-cyclobutylpiperazin-1-yl)-6,7,8,9-tetrahydro-5H-pyrimido[4,5-d]azepine] |
| ≥ 90 | O=C(Cc1ccc(Oc2ccccc2)cc1)N1CCc2cnc(N3CCN(C4CCC4)CC3)nc2CC1 [Compound 283, 2-(4-cyclobutylpiperazin-1-yl)-7-[(4-phenoxyphenyl)acetyl]-6,7,8,9-tetrahydro-5H-pyrimido[4,5-d]azepine] |
| ≥ 90 | c1cc(N2CCOCC2)ncc1CN1CCc2cnc(N3CCN(C4CCC4)CC3)nc2CC1 [Compound 240, 2-(4-cyclobutylpiperazin-1-yl)-7-[(6-morpholin-4-ylpyridin-3-yl)methyl]-6,7,8,9-tetrahydro-5H-pyrimido[4,5-d]azepine] |
| ≥ 90 | O=C(Cc1ccc(OC(F)(F)F)cc1)N1CCc2cnc(N3CCN(C4CCC4)CC3)nc2CC1 [Compound 278, 2-(4-cyclobutylpiperazin-1-yl)-7-{[4-(trifluoromethoxy)phenyl]acetyl}-6,7,8,9-tetrahydro-5H-pyrimido[4,5-d]azepine] |
| ≥ 90 | COc1cc(CC(=O)N2CCc3cnc(N4CCN(C5CCC5)CC4)nc3CC2)cc(OC)c1 [Compound 280, 2-(4-cyclobutylpiperazin-1-yl)-7-[(3,5-dimethoxyphenyl)acetyl]-6,7,8,9-tetrahydro-5H-pyrimido[4,5-d]azepine] |
| ≥ 90 | CC(C)CN1CCc2cnc(N3CCN(C4CCC4)CC3)nc2CC1 [Compound 251, 2-(4-cyclobutylpiperazin-1-yl)-7-isobutyl-6,7,8,9-tetrahydro-5H-pyrimido[4,5-d]azepine] |
| ≥ 90 | c1ccc2c(CN3CCc4cnc(N5CCN(C6CCC6)CC5)nc4CC3)ccnc2c1 [Compound 236, 2-(4-cyclobutylpiperazin-1-yl)-7-(quinolin-4-ylmethyl)-6,7,8,9-tetrahydro-5H-pyrimido[4,5-d]azepine] |

Same assay, conditions: symbol ! in Ki; test compound 4 μM, 1 μM histamine; read-out: percent inhibition of agonist-induced GTP-gammaS binding to H3

| SMILES | inhibition at 4 µM [%] |
| --- | --- |
| CCN(CCN(C)C)c1ncnc2c1CCN(Cc1ccccc1)C2 [Compound 14, N-(7-benzyl-5,6,7,8-tetrahydropyrido[3,4-d]pyrimidin-4-yl)-N-ethyl-N′,N′-dimethylethane-1,2-diamine] | ≥ 90 |
| CC(c1ccc(F)cc1)N1CCc2c(ncnc2N2CCN(C3CCC3)CC2)C1 (stereo not drawn) [Compound 104, 4-(4-cyclobutylpiperazin-1-yl)-7-[1-(4-fluorophenyl)ethyl]-5,6,7,8-tetrahydropyrido[3,4-d]pyrimidine] | ≥ 90 |
| CC(C1CCOC1)N1CCc2c(ncnc2N2CCN(C3CCC3)CC2)C1 (stereo not drawn) [Compound 127, 4-(4-cyclobutylpiperazin-1-yl)-7-[1-(tetrahydrofuran-3-yl)ethyl]-5,6,7,8-tetrahydropyrido[3,4-d]pyrimidine] | ≥ 90 |
| CCCC(=O)N1CCc2c(ncnc2N2CCN(C3CCC3)CC2)C1 [Compound 43, 7-butyryl-4-(4-cyclobutylpiperazin-1-yl)-5,6,7,8-tetrahydropyrido[3,4-d]pyrimidine] | ≥ 90 |
| CC(c1ccc(N2CCCC2)nc1)N1CCc2c(ncnc2N2CCN(C3CCC3)CC2)C1 (stereo not drawn) [Compound 133, 4-(4-cyclobutylpiperazin-1-yl)-7-[1-(6-pyrrolidin-1-ylpyridin-3-yl)ethyl]-5,6,7,8-tetrahydropyrido[3,4-d]pyrimidine] | ≥ 90 |
| CCC(C)C(=O)N1CCc2c(ncnc2N2CCN(C3CCC3)CC2)C1 (stereo not drawn) [Compound 60, 4-(4-cyclobutylpiperazin-1-yl)-7-(2-methylbutanoyl)-5,6,7,8-tetrahydropyrido[3,4-d]pyrimidine] | ≥ 90 |

The next lines start with the values.

| inhibition at 4 µM [%] | SMILES |
| --- | --- |
| ≥ 90 | Cc1c(F)cccc1CN1CCc2nc(N3CCN(C4CCC4)CC3)ncc2C1 [Compound 644, 2-(4-cyclobutylpiperazin-1-yl)-6-(3-fluoro-2-methylbenzyl)-5,6,7,8-tetrahydropyrido[4,3-d]pyrimidine] |
| ≥ 90 | COc1ccccc1CN1CCc2nc(N3CCN(C4CCC4)CC3)ncc2C1 [Compound 623, 2-(4-cyclobutylpiperazin-1-yl)-6-(2-methoxybenzyl)-5,6,7,8-tetrahydropyrido[4,3-d]pyrimidine] |
| ≥ 90 | CCCCCN1CCc2nc(N3CCN(C4CCC4)CC3)ncc2C1 [Compound 629, 2-(4-cyclobutylpiperazin-1-yl)-6-pentyl-5,6,7,8-tetrahydropyrido[4,3-d]pyrimidine] |

Same assay, conditions: test compound 4 μM, 1 μM histamine; read-out: percent inhibition of agonist-induced GTP-gammaS binding to H3

| inhibition at 4 µM [%] | SMILES |
| --- | --- |
| ≥ 90 | O=S(=O)(c1ccccc1)N1CCc2cnc(N3CCN(C4CCC4)CC3)nc2CC1 [Compound 12, 7-Benzenesulfonyl-2-(4-Cyclobutyl-piperazin-1-yl)-6,7,8,9-tetrahydro-5H-pyrimido[4.5-d]azepine] |
| ≥ 90 | c1nc2c(c(N3CCN(C4CCC4)CC3)n1)CCN(CC1CCCCC1)C2 [Compound 2, 4-(4-Cyclobutylpiperazin-1-yl)-7-cyclohexylmethyl-5,6,7,8-tetrahydropyrido[3,4-d]pyrimidine] |
